Measured values: PubChem BioAssay AID194 (DTP/NCI, 2004)
Where “and” joins values, the source holds several entries; their conditions need not be identical. Equal entries are not always repeated. Inconclusive results are not listed. *1 amine or outer side, *2 acyl side, *3 side chain or, on linkers, in order; H or OH if unused. Where a SMILES comes first, the peptide text is derived from it. Bridges are numbered along the chain shown (N, C = ends). Roman numbers before positions name the chains, in order. [ ]: non-standard residue; d: D form. Actinocin(9to1) = Cc1c2oc3c(C)ccc(C(=O)[*:1])c3nc-2c(C(=O)[*:2])c(N)c1=O; aThr = C[C@H](O)[C@H](N)C(=O)O; NMeV = CN[C@H](C(=O)O)C(C)C; Sar = CNCC(=O)O

Test system: BDF1 mice, B16 melanoma s.c., survival/tumor T/C
Assay: NCI In Vivo Anticancer Drug Screen. Data for tumor model B16 Melanoma (subcutaneous) in B6D2F1 (BDF1) mice
Method: The antitumor activity of compounds was measured in mice bearing transplantable tumors. Survival or tumor size were measured and the results are expressed as the measurement made in the treated group (T) divided by the measurement made in the vehicle treated control group (C). The tumor model used in this assay is B16 Melanoma (subcutaneous) in B6D2F1 (BDF1) mice

[1] = endpoint: median survival time, dose: 2.0 mg/kg/injection, schedule: Q01DX009 (ip), vehicle: saline, higher = longer survival
[2] = endpoint: median survival time, dose: 6.25 mg/kg/injection, schedule: Q01DX009 (ip), vehicle: other, higher = longer survival
[3] = endpoint: median survival time, dose: 12.5 mg/kg/injection, schedule: Q01DX009 (ip), vehicle: other, higher = longer survival
[4] = endpoint: median survival time, dose: 25.0 mg/kg/injection, schedule: Q01DX009 (ip), vehicle: other, higher = longer survival

## S=P(N1CC1)(N1CC1)N1CC1
endpoint: median survival time, dose: 1.0 mg/kg/injection, schedule: Q01DX001 (oral), vehicle: saline, higher = longer survival
  T/C: 97 % of control
endpoint: median survival time, dose: 1.0 mg/kg/injection, schedule: Q02DX009 (ip), vehicle: saline, higher = longer survival
  T/C: 109 % of control and 113 % of control
endpoint: median survival time, dose: 2.0 mg/kg/injection, schedule: Q01DX001 (oral), vehicle: saline, higher = longer survival
  T/C: 89 % of control
[1]
  T/C: 106 % of control
endpoint: median survival time, dose: 2.0 mg/kg/injection, schedule: Q02DX009 (ip), vehicle: saline, higher = longer survival
  T/C: 99 % of control and 202 % of control
endpoint: median survival time, dose: 4.0 mg/kg/injection, schedule: Q01DX001 (oral), vehicle: saline, higher = longer survival
  T/C: 98 % of control
endpoint: median survival time, dose: 8.0 mg/kg/injection, schedule: Q01DX001 (oral), vehicle: saline, higher = longer survival
  T/C: 100 % of control
endpoint: median survival time, dose: 8.0 mg/kg/injection, schedule: Q02DX009 (ip), vehicle: saline, higher = longer survival
  T/C: 98 % of control
endpoint: median survival time, dose: 12.5 mg/kg/injection, schedule: Q01DX001 (ip), vehicle: saline, higher = longer survival
  T/C: 105 % of control
endpoint: median survival time, dose: 16.0 mg/kg/injection, schedule: Q01DX001 (oral), vehicle: saline, higher = longer survival
  T/C: 100 % of control

## COc1cccc2c1C(=O)c1c(O)c3c(c(O)c1C2=O)C[C@@](O)(C(=O)COC(=O)Cc1cccc2ccccc12)C[C@@H]3OC1CC(N)C(O)C(C)O1 (stereo not given in full)
endpoint: median survival time, dose: 1.0 mg/kg/injection, schedule: Q01DX009 (ip), vehicle: saline with Tween-80, higher = longer survival
  T/C: 111 % of control
endpoint: median survival time, dose: 2.0 mg/kg/injection, schedule: Q01DX009 (ip), vehicle: saline with Tween-80, higher = longer survival
  T/C: 114 % of control
endpoint: median survival time, dose: 4.0 mg/kg/injection, schedule: Q01DX009 (ip), vehicle: saline with Tween-80, higher = longer survival
  T/C: 94 % of control

## Nc1nc(=S)c2[nH]cnc2[nH]1
endpoint: median survival time, dose: 48.0 mg/kg/injection, schedule: Q01DX001 (ip), vehicle: alkali diluted with saline, higher = longer survival
  T/C: 102 % of control

## NCCc1nc(-c2nc(C(=O)O)cs2)cs1
endpoint: median survival time, dose: 6.25 mg/kg/injection, schedule: Q01DX009 (ip), vehicle: water, higher = longer survival
  T/C: 98 % of control
endpoint: median survival time, dose: 12.5 mg/kg/injection, schedule: Q01DX009 (ip), vehicle: water, higher = longer survival
  T/C: 95 % of control
endpoint: median survival time, dose: 25.0 mg/kg/injection, schedule: Q01DX009 (ip), vehicle: water, higher = longer survival
  T/C: 91 % of control
endpoint: median survival time, dose: 50.0 mg/kg/injection, schedule: Q01DX009 (ip), vehicle: water, higher = longer survival
  T/C: 92 % of control
endpoint: median survival time, dose: 100.0 mg/kg/injection, schedule: Q01DX009 (ip), vehicle: water, higher = longer survival
  T/C: 95 % of control

## CCOC(=O)C1CCC(NC(=O)N(CCCl)N=O)CC1 (stereo not given)
endpoint: median survival time, dose: 33.0 mg/kg/injection, schedule: Q01DX001 (ip), vehicle: gum acacia, higher = longer survival
  T/C: 196 % of control
endpoint: median survival time, dose: 44.0 mg/kg/injection, schedule: Q01DX001 (ip), vehicle: gum acacia, higher = longer survival
  T/C: 192 % of control

## CO[C@H]1/C=C/O[C@@]2(C)Oc3c(C)c(O)c4c(O)c(c(/C=N/N5C(C)CN(Cc6ccccc6)CC5C)c(O)c4c3C2=O)NC(=O)/C(C)=C\C=C\[C@H](C)[C@H](O)[C@@H](C)[C@@H](O)[C@@H](C)[C@H](OC(C)=O)[C@@H]1C (stereo not given in full)
endpoint: median survival time, dose: 50.0 mg/kg/injection, schedule: Q02DX Z (oral), vehicle: Klucel (hydroxypropylcellulose) (HPC), higher = longer survival
  T/C: 101 % of control
endpoint: median survival time, dose: 100.0 mg/kg/injection, schedule: Q02DX Z (oral), vehicle: Klucel (hydroxypropylcellulose) (HPC), higher = longer survival
  T/C: 89 % of control
endpoint: median survival time, dose: 200.0 mg/kg/injection, schedule: Q02DX Z (oral), vehicle: Klucel (hydroxypropylcellulose) (HPC), higher = longer survival
  T/C: 86 % of control

## CC[CH2][Sn]([CH2]CC)([CH2]CC)[O][Sn]([CH2]CC)([CH2]CC)[CH2]CC
endpoint: median survival time, dose: 0.5 mg/kg/injection, schedule: Q01DX009 (ip), vehicle: saline, higher = longer survival
  T/C: 123 % of control
endpoint: median survival time, dose: 1.0 mg/kg/injection, schedule: Q01DX009 (ip), vehicle: saline, higher = longer survival
  T/C: 114 % of control
[1]
  T/C: 100 % of control

## CS(=O)(=O)OCCCNCCCOS(C)(=O)=O
endpoint: median survival time, dose: 5.0 mg/kg/injection, schedule: Q01DX009 (ip), vehicle: saline, higher = longer survival
  T/C: 106 % of control
endpoint: median survival time, dose: 10.0 mg/kg/injection, schedule: Q01DX009 (ip), vehicle: saline, higher = longer survival
  T/C: 110 % of control
endpoint: median survival time, dose: 20.0 mg/kg/injection, schedule: Q01DX009 (ip), vehicle: saline, higher = longer survival
  T/C: 92 % of control

## C[C@@H](CN1CC(=O)NC(=O)C1)N1CC(=O)NC(=O)C1
endpoint: median survival time, dose: 6.25 mg/kg/injection, schedule: Q04DX003 (ip), vehicle: saline, higher = longer survival
  T/C: 91 % of control
endpoint: median survival time, dose: 12.5 mg/kg/injection, schedule: Q04DX003 (ip), vehicle: saline, higher = longer survival
  T/C: 97 % of control
endpoint: median survival time, dose: 16.0 mg/kg/injection, schedule: Q01DX009 (ip), vehicle: Klucel (hydroxypropylcellulose) (HPC), higher = longer survival
  T/C: 100 % of control
endpoint: median survival time, dose: 16.0 mg/kg/injection, schedule: Q01DX009 (ip), vehicle: water, higher = longer survival
  T/C: 117 % of control
endpoint: median survival time, dose: 25.0 mg/kg/injection, schedule: Q04DX003 (ip), vehicle: saline, higher = longer survival
  T/C: 107 % of control
endpoint: median survival time, dose: 32.0 mg/kg/injection, schedule: Q01DX009 (ip), vehicle: Klucel (hydroxypropylcellulose) (HPC), higher = longer survival
  T/C: 110 % of control
endpoint: median survival time, dose: 64.0 mg/kg/injection, schedule: Q01DX009 (ip), vehicle: Klucel (hydroxypropylcellulose) (HPC), higher = longer survival
  T/C: 168 % of control
endpoint: median survival time, dose: 100.0 mg/kg/injection, schedule: Q04DX003 (ip), vehicle: saline, higher = longer survival
  T/C: 119 % of control
endpoint: median survival time, dose: 200.0 mg/kg/injection, schedule: Q04DX003 (ip), vehicle: saline, higher = longer survival
  T/C: 115 % of control
endpoint: median survival time, dose: 400.0 mg/kg/injection, schedule: Q04DX003 (ip), vehicle: saline, higher = longer survival
  T/C: 108 % of control
endpoint: median survival time, dose: 800.0 mg/kg/injection, schedule: Q04DX003 (ip), vehicle: saline, higher = longer survival
  T/C: 119 % of control

## Cc1c2oc3c(C)ccc(C(=O)N[C@@H]4C(=O)N[C@H](C(C)C)C(=O)N5CCC[C@H]5C(=O)N(C)CC(=O)N(C)[C@@H](C(C)C)C(=O)O[C@H]4C)c3nc-2c(C(=O)N[C@@H]2C(=O)N[C@H](C(C)C)C(=O)N3CCC[C@H]3C(=O)N(C)CC(=O)N(C)[C@@H](C(C)C)C(=O)O[C@H]2C)c(N)c1=O (I: [aThr][dV]P[Sar][NMeV] / II: [aThr][dV]P[Sar][NMeV]; ester I:1-I:C, II:1-II:C; linker I:N-II:N via Actinocin(9to1))
endpoint: median tumor weight (est.), dose: 100.0 micrograms/kg/injection, schedule: Q01DX009 (ip), vehicle: saline, higher = larger tumour
  T/C: 38 % of control

## CN(N=O)C(N)=O
endpoint: median survival time, dose: 3.12 mg/kg/injection, schedule: Q01DX009 (ip), vehicle: saline, higher = longer survival
  T/C: 97 % of control
endpoint: median survival time, dose: 6.25 mg/kg/injection, schedule: Q01DX009 (ip), vehicle: saline, higher = longer survival
  T/C: 105 % of control
endpoint: median survival time, dose: 12.5 mg/kg/injection, schedule: Q01DX009 (ip), vehicle: saline, higher = longer survival
  T/C: 109 % of control

## CCN1/C(=C/C=C/C=C/c2sc3ccccc3[n+]2CC)Sc2ccccc21
endpoint: median survival time, dose: 63.0 micrograms/kg/injection, schedule: Q01DX009 (ip), vehicle: saline, higher = longer survival
  T/C: 117 % of control
endpoint: median survival time, dose: 125.0 micrograms/kg/injection, schedule: Q01DX009 (ip), vehicle: saline, higher = longer survival
  T/C: 120 % of control

## O=C1C=CC(=O)O1 (tested in a mixture with another compound)
[2]
  T/C: 92 % of control
[3]
  T/C: 101 % of control
[4]
  T/C: 120 % of control

## COC1C(O)C(C)OC(OC2C(Oc3cccc4c(O)c5c(=O)oc6ccc(C)c7c(=O)oc(c34)c5c67)OC(C)C(O)C2O)C1O (stereo not given)
[2]
  T/C: 95 % of control
[3]
  T/C: 104 % of control
[4]
  T/C: 100 % of control
endpoint: median survival time, dose: 50.0 mg/kg/injection, schedule: Q01DX009 (ip), vehicle: other, higher = longer survival
  T/C: 101 % of control

## CN(C)/N=N/c1nc[nH]c1C(N)=O
endpoint: median survival time, dose: 12.5 mg/kg/injection, schedule: Q01DX009 (ip), vehicle: Klucel (hydroxypropylcellulose) (HPC), higher = longer survival
  T/C: 101 % of control
endpoint: median survival time, dose: 25.0 mg/kg/injection, schedule: Q01DX009 (ip), vehicle: Klucel (hydroxypropylcellulose) (HPC), higher = longer survival
  T/C: 89 % of control
endpoint: median survival time, dose: 37.5 mg/kg/injection, schedule: Q01DX009 (ip), vehicle: saline with Tween-80, higher = longer survival
  T/C: 175 % of control
endpoint: median survival time, dose: 37.5 mg/kg/injection, schedule: Q01DX009 (ip), vehicle: saline, higher = longer survival
  T/C: 110 % of control
endpoint: median survival time, dose: 50.0 mg/kg/injection, schedule: Q01DX009 (ip), vehicle: Klucel (hydroxypropylcellulose) (HPC), higher = longer survival
  T/C: 119 % of control
endpoint: median survival time, dose: 75.0 mg/kg/injection, schedule: Q01DX009 (ip), vehicle: Klucel (hydroxypropylcellulose) (HPC), higher = longer survival
  T/C: 160 % of control
endpoint: median survival time, dose: 75.0 mg/kg/injection, schedule: Q01DX009 (ip), vehicle: saline with Tween-80, higher = longer survival
  T/C: 156 % of control
endpoint: median survival time, dose: 75.0 mg/kg/injection, schedule: Q01DX009 (ip), vehicle: saline, higher = longer survival
  T/C: 113 % of control
endpoint: median survival time, dose: 100.0 mg/kg/injection, schedule: Q01DX009 (ip), vehicle: Klucel (hydroxypropylcellulose) (HPC), higher = longer survival
  T/C: 109 % of control
endpoint: median survival time, dose: 150.0 mg/kg/injection, schedule: Q01DX009 (ip), vehicle: Klucel (hydroxypropylcellulose) (HPC), higher = longer survival
  T/C: 91 % of control
endpoint: median survival time, dose: 150.0 mg/kg/injection, schedule: Q01DX009 (ip), vehicle: saline with Tween-80, higher = longer survival
  T/C: 154 % of control
endpoint: median tumor weight (est.), dose: 37.0 mg/kg/injection, schedule: Q01DX009 (ip), vehicle: saline with Tween-80, higher = larger tumour
  T/C: 50 % of control
endpoint: median tumor weight (est.), dose: 75.0 mg/kg/injection, schedule: Q01DX009 (ip), vehicle: saline with Tween-80, higher = larger tumour
  T/C: 110 % of control
endpoint: median tumor weight (est.), dose: 150.0 mg/kg/injection, schedule: Q01DX009 (ip), vehicle: Klucel (hydroxypropylcellulose) (HPC), higher = larger tumour
  T/C: 59 % of control
endpoint: median tumor weight (est.), dose: 150.0 mg/kg/injection, schedule: Q01DX009 (ip), vehicle: saline with Tween-80, higher = larger tumour
  T/C: 42 % of control
endpoint: median tumor weight (est.), dose: 300.0 mg/kg/injection, schedule: Q01DX009 (ip), vehicle: saline with Tween-80, higher = larger tumour
  T/C: 43 % of control
